Reference: US9962367B2, “Oral formulations of pyrrolidine derivatives” (ObsEva S.A., priority 2013, dated 2018)

Test: Qualitative solubility/crystallisation tests on 15 mg scale
Type: physicochemical

Q: Which results are given for `CO/N=C1/C[C@@H](CO)N(C(=O)c2ccc(-c3ccccc3C)cc2)C1` [(3Z,5S), (3Z,5S)-5-(hydroxymethyl)-1-[(2′-methyl-1,1′-biphenyl-4-yl)carbonyl]pyrrolidin-3-one-O-methyloxime]?
A: Dissolves in (solvent DIPE, hot): 40 vol hot; Dissolves in (solvent IPA, hot): 4 vol hot; Dissolves in (solvent MIBK, hot): 4 vol hot; Dissolves in (solvent THF, cold): 4 vol cold; Dissolves in (solvent tBuOH, hot): 6 vol hot; Dissolves in (solvent toluene, cold): 2 vol cold
